Assay results as given in BindingDB's records for doi:10.1021/jm0494974 (Institute, 2005).

molecular target: Tubulin beta-2B chain (UniProt Q6B856); assay: Binding affinity against tubulin from goat brain relative to colchicine
Sequence (Q6B856 whole entry): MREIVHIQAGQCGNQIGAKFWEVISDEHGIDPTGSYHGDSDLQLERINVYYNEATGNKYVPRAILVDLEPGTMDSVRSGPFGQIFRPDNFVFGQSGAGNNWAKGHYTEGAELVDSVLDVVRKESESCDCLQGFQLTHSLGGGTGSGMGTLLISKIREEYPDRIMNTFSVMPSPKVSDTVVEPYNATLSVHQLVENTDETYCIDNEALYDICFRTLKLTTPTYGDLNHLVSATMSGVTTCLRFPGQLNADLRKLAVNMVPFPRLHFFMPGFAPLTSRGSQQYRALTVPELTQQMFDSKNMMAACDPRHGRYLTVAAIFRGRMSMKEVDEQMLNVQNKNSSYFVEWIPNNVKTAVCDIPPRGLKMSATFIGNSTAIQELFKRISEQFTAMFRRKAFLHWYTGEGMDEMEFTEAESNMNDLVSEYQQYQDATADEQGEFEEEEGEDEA

SMILES | Ki [µM]
COc1ccc(S(=O)(=O)Nc2cccc3cc[nH]c23)cc1 [N-(1H-Indol-7-yl)-4-methoxy-benzenesulfonamide] | 14
COc1ccc(S(=O)(=O)Nc2cccc3cc(Cl)[nH]c23)cc1 [N-(2-Chloro-1H-indol-7-yl)-4-methoxy-benzenesulfonamide] | 28
COc1ccc(S(=O)(=O)Nc2ccc(Cl)c3cc[nH]c23)cc1 [N-(4-Chloro-1H-indol-7-yl)-4-methoxy-benzenesulfonamide] | 14
COc1ccc(S(=O)(=O)Nc2cccc3c(Cl)c[nH]c23)cc1 [N-(3-Chloro-1H-indol-7-yl)-4-methoxy-benzenesulfonamide] | 14
COc1ccc(S(=O)(=O)Nc2cc(Cl)cc3cc[nH]c23)cc1 [N-(5-Chloro-1H-indol-7-yl)-4-methoxy-benzenesulfonamide] | 7
